Read-outs that look alike come from different tables or passages of the source.
Tests used:
[1] = Mean intrapatient coefficient of variation of oral bioavailability; assay type: in vivo; conditions: human, plasma, 2 mg/m2; AMT 2 mg/m^2 PO, n=5
Text: The term “intrapatient coefficient of variation of oral bioavailability” as used herein refers to the coefficient of variation of oral bioavailability of two or more antifolate doses given to the same patient. Specifically, it is the standard deviation of oral bioavailability of the two or more antifolate doses in the same patient divided by the intrapatient oral bioavailability, expressed as a percent.
The term “mean intrapatient coefficient of variation of oral bioavailability” as used herein refers to the average intrapatient coefficient of variation of oral bioavailability for two or more patients.
The intrapatient oral bioavailability and standard deviation of the oral bioavailability were determined among the consecutive doses in a given patient, and the intrapatient coefficient of variation of oral bioavailability calculated for each patient by dividing the standard deviation by the intrapatient oral bioavailability.

[2] = Interpatient oral bioavailability in patients (oral vs intravenous AUC, matched); assay type: in vivo; conditions: human, plasma
Description: The term “interpatient oral bioavailability” as used herein refers to the mean oral bioavailability in a population of at least two patients, wherein the oral bioavailability is determined at least once for each patient in the population. The interpatient oral bioavailability may be calculated by dividing the mean population AUC after oral dosing by the mean population AUC after intravenous dosing, wherein the oral and intravenous doses are identical, and expressing the ratio as a percent. In a preferred method, the interpatient oral bioavailability is calculated using matched samples by averaging the oral bioavailabilities obtained for each patient. More specifically, the oral bioavailability is obtained for each patient by dividing the AUC after oral dosing the patient by the AUC after intravenous dosing the same patient with the same dose of antifolate (i.e. the oral and intravenous AUC in each patient are matched and the patients are said to be matched). The interpatient oral bioavailability based on these matched patients is then simply the mean population oral bioavailability expressed as a percent. […] It is sufficient to use a representative number of patients from a particular patient population to establish an interpatient oral bioavailability for that population, where at least 5 patients will be required in order to establish an interpatient oral bioavailability of a population.
The term “oral bioavailability” as used herein refers to the fraction of an antifolate dose given orally that is absorbed into the plasma after a single administration to a patient. A preferred method for determining the oral bioavailability is by dividing the AUC of an antifolate dose given orally by the AUC of the same antifolate dose given intravenously to the same patient, and expressing the ratio as a percent. […]

[3] = Potency relative to methotrexate; conditions: therapeutically effective amount for the same level of efficacy
[4] = mice, 4 weekly ip doses (aminopterin 0.03 mg/kg, methotrexate 0.3 mg/kg)
[5] = test system: standard and high-risk ALL; conditions: for Coefficient of variation of toxicity of aminopterin as percent of that of methotrexate: both oral; for Therapeutic Component: Percentage effective (no evidence of a disease manifestation): greater than 12 months treatment, AMT 4 mg/m^2/wk high risk ALL (n=20), MTX 100 mg/m^2/wk standard risk ALL (n=20)
[6] = molecular target: T1, partially purified chicken liver DHFR (Gallus gallus, UniProt P00378); assay: Radioligand DHFR binding assay; conditions: aminopterin compared with methotrexate
T1 sequence (P00378 1-189): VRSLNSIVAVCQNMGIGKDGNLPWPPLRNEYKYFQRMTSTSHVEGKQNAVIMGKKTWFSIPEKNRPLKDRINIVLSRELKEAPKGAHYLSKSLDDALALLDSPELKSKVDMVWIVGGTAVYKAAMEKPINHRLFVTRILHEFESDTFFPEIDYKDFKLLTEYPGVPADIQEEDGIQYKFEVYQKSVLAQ

[7] = test system: T-lineage acute lymphoblastic leukemia (ALL); conditions: for Therapeutic Index / Toxicity Component: Antifolate dose with same toxicity as MTX at 100 mg/m^2/wk: T-lineage ALL; for Therapeutic Component: Antifolate dose / Therapeutic Component: Percentage effective (complete remission or stable disease): peripheral blasts and bone marrow infiltrates in T-lineage ALL, n=7; for Therapeutic Component: Percentage effective (complete remission or stable disease): AMT 4 mg/m^2/wk, MTX >5000 mg/m^2/wk in the same patients
Description: Specifically, a clinical trial was performed in human adult and pediatric patients having T-lineage acute lymphoblastic leukemia (ALL) that was refractory to therapy or that had relapsed (see Table IV). The disease manifestations that were monitored were peripheral blasts and bone marrow infiltrates. The toxicity manifestations that were monitored were mucositis, neutropenia, thrombocytopenia and myelosuppression.

[8] = AMT 2 mg/m^2 PO x 2 (n=75), MTX 25 mg/m^2 PO x 4 (n=41)
[9] = AMT 2 mg/m^2 PO x 2 (n=81), MTX 25 mg/m^2 PO x 4 (n=42)
[10] = AMT 2 mg/m^2 PO x 2 (n=104), MTX 25 mg/m^2 PO x 4 (n=63)
[11] = AMT 2 mg/m^2 PO x 2, MTX 25 mg/m^2 PO x 4
[12] = eAMT and eMTX (marrow exposure)

## Nc1nc(N)c2nc(CNc3ccc(C(=O)N[C@@H](CCC(=O)O)C(=O)O)cc3)cnc2n1 [AMT]
[1]
  Mean intrapatient coefficient of variation of oral bioavailability: 25%
[2]; 2 mg/m2, AMT 2 mg/m^2, pediatric patients (age 0-21), 15 matched patients, read-out: Interpatient oral bioavailability (%)
  bioavailability: 94%
[2]; 2 mg/m2, AMT 2 mg/m^2, pediatric patients, n=15, read-out: Maximum (%) oral bioavailability
  bioavailability: 165%
[2]; 2 mg/m2, AMT 2 mg/m^2, pediatric patients, n=15, read-out: Minimum (%) oral bioavailability
  bioavailability: 45%
[3]
  potency relative to methotrexate: about 25 times
[4]; days 1, 12 and 22
  antifolate content in brain parenchyma, aminopterin arm vs methotrexate arm: significantly less antifolate
[4]; days 1 and 22 after last dose
  antifolate content in liver, aminopterin vs methotrexate: no different
[5]; 25 high risk patients receiving aminopterin, standard risk patients receiving methotrexate
  Event-free survival (EFS) at 24-months, Kaplan Meier: 93%
[5]; [8]
  Coefficient of variation of toxicity, absolute neutrophil count in consolidation: 80%
  Mean absolute neutrophil count in consolidation: 1667 cells/μL
[5]; [9]
  Coefficient of variation of toxicity, platelet counts in consolidation: 58%
  Mean platelet counts in consolidation: 316 cells × 10^3/μL
[5]; [10]
  Coefficient of variation of toxicity, level of liver enzymes above normal: 25%
  Mean level of liver enzymes above normal: 188 IU/L ALT
[5]; AMT 2 mg/m^2 PO x 2 (n=104), MTX 25 mg/m^2 PO x 4 (n=63), listed as aminopterin
  Coefficient of variation of toxicity, level of liver enzymes above normal: 25%
[5]; [11]
  Coefficient of variation Relative To The Invention, absolute neutrophil count in consolidation: 1.0
  Coefficient of variation Relative To The Invention, level of liver enzymes above normal: 1.0
  Coefficient of variation Relative To The Invention, platelet counts in consolidation: 1.0
[5]; AMT 4 mg/m^2/wk (n=104), MTX 100 mg/m^2/wk (n=63)
  Patients with severe hepatotoxicity (liver enzyme elevations greater than five times normal): 5.8%
[5]; AMT high risk ALL (n=20), MTX standard risk ALL (n=20), Table V
  Therapeutic Component: Antifolate dose: 4 mg/m^2/wk:
[5]; AMT high risk ALL (n=20), MTX standard risk ALL (n=20), Table VI
  Therapeutic Component: Antifolate dose with same efficacy as MTX at 100 mg/m^2/wk: 4 mg/m^2/wk
[5]; Any elevation of liver enzymes
  Therapeutic Index: 1
  Toxicity Component: Antifolate dose with same toxicity as MTX at 100 mg/m^2/wk: 4 mg/m^2/wk
[5]; Elevations in liver enzymes >5 times normal
  Therapeutic Index: 1
[5]; Elevations in liver enzymes >5 times normal (severe hepatotoxicity)
  Toxicity Component: Antifolate dose causing 5.8% of the population to have the toxicity: 4 mg/m^2/wk
[5]; Hospital admissions
  Therapeutic Index: 1
  Toxicity Component: Antifolate dose with same toxicity as MTX at 100 mg/m^2/wk: 4 mg/m^2/wk
[5]; Mucositis
  Therapeutic Index: 1
  Toxicity Component: Antifolate dose with same toxicity as MTX at 100 mg/m^2/wk: 4 mg/m^2/wk
[5]; Myelosuppression
  Therapeutic Index: 1
  Toxicity Component: Antifolate dose with same toxicity as MTX at 100 mg/m^2/wk: 4 mg/m^2/wk
[5]; Neutropenia
  Therapeutic Index: 1
  Toxicity Component: Antifolate dose with same toxicity as MTX at 100 mg/m^2/wk: 4 mg/m^2/wk
[5]; Thrombocytopenia
  Therapeutic Index: 1
  Toxicity Component: Antifolate dose with same toxicity as MTX at 100 mg/m^2/wk: 4 mg/m^2/wk
[5]; Treatment interruptions
  Therapeutic Index: 1
  Toxicity Component: Antifolate dose with same toxicity as MTX at 100 mg/m^2/wk: 4 mg/m^2/wk
[5]; [12]
  Therapeutic Index: 1
  Toxicity Component: Antifolate dose with same toxicity as MTX at 100 mg/m^2/wk: 4 mg/m^2/wk
[5]; elevated liver enzymes, 2 mg/m^2 aminopterin vs 25 mg/m^2 methotrexate
  Coefficient of variation of toxicity of aminopterin as percent of that of methotrexate: 71%
[5]; erythrocyte antifolate levels, 2 mg/m^2 aminopterin vs 20 mg/m^2 methotrexate
  Coefficient of variation of toxicity of aminopterin as percent of that of methotrexate: 12.4%
[5]; follow-up period of up to 15 months, 20 patients per arm
  Survival rate of high risk patients vs standard risk patients treated with equipotent methotrexate: equivalent survival rate
[5]
  Therapeutic Component: Percentage effective (no evidence of a disease manifestation): 100% effective at
[5]; listed as aminopterin
  Therapeutic Component: Percentage effective (no evidence of a disease manifestation): 100%
[6]
  displacement of tritiated methotrexate and binding to DHFR: equivalent
[7]; Mucositis vs peripheral blasts/bone marrow infiltrates
  Therapeutic Index: 1
[7]; Mucositis
  Toxicity Component: Antifolate dose with same toxicity as MTX at 100 mg/m^2/wk: 4 mg/m^2/wk
[7]; Myelosuppression
  Therapeutic Index: 1
  Toxicity Component: Antifolate dose with same toxicity as MTX at 100 mg/m^2/wk: 4 mg/m^2/wk
[7]; Neutropenia
  Therapeutic Index: 1
  Toxicity Component: Antifolate dose with same toxicity as MTX at 100 mg/m^2/wk: 4 mg/m^2/wk
[7]; Thrombocytopenia
  Therapeutic Index: 1
  Toxicity Component: Antifolate dose with same toxicity as MTX at 100 mg/m^2/wk: 4 mg/m^2/wk
[7]
  Therapeutic Component: Antifolate dose: 4 mg/m^2/wk:
  Therapeutic Component: Percentage effective (complete remission or stable disease): 43% complete
[7]; listed as aminopterin
  Therapeutic Component: Percentage effective (complete remission or stable disease): 43%
  Therapeutic Component: Antifolate dose: 4 mg/m^2/wk
[7]; peripheral blasts in T-lineage ALL and mucositis
  Therapeutic index of aminopterin relative to corresponding therapeutic index of methotrexate: greater than 50 fold
